{"source": "paper PMC10215302", "about": "(Antibiotics, 2023)", "key": {"[1]": {"tested_on": "S. aureus SA0077"}, "[2]": {"tested_on": "S. aureus SA0085"}, "[3]": {"tested_on": "S. aureus SA0422"}, "[4]": {"tested_on": "S. aureus SA0736"}, "[5]": {"tested_on": "S. aureus ATCC 29213"}, "[6]": {"tested_on": "S. aureus RN4220"}, "[7]": {"tested_on": "S. aureus derivative strains"}, "[8]": {"tested_on": "S. aureus (VISA/hVISA isolates; MprF P314L strains)", "conditions": "MprF AAS P314L, cited from earlier work"}}, "note": "Read-outs that look alike come from different tables or passages of the source.", "data": [{"smiles": "CCCCCCCCCC(=O)N[C@@H](Cc1c[nH]c2ccccc12)C(=O)N[C@H](CC(N)=O)C(=O)N[C@@H](CC(=O)O)C(=O)N[C@@H]1C(=O)NCC(=O)N[C@@H](CCCN)C(=O)N[C@@H](CC(=O)O)C(=O)N[C@H](C)C(=O)N[C@@H](CC(=O)O)C(=O)NCC(=O)N[C@H](CO)C(=O)N[C@@H]([C@H](C)CC(=O)O)C(=O)N[C@@H](CC(=O)c2ccccc2N)C(=O)O[C@@H]1C", "note": "[DAP, daptomycin]", "values": [{"measurement": "MIC", "setting": "[1]; SA0077, selecting agent DAP, passage 5", "value": 0.5, "unit": "µg/mL"}, {"measurement": "MIC", "setting": "[1]; SA0077, selecting agent DAP, passage 20", "value": 8, "unit": "µg/mL"}, {"measurement": "MIC", "setting": "[1]; SA0077, selecting agent DAP, passage 40", "value": 32, "unit": "µg/mL"}, {"measurement": "MIC", "setting": "[1]; SA0077, selecting agent VAN, passage 0", "value": 0.25, "unit": "µg/mL"}, {"measurement": "MIC", "setting": "[1]; SA0077, selecting agent VAN, passage 5", "value": 2, "unit": "µg/mL"}, {"measurement": "MIC", "setting": "[1]; SA0077, selecting agent VAN, passage 20", "value": 2, "unit": "µg/mL"}, {"measurement": "MIC", "setting": "[1]; SA0077, selecting agent VAN, passage 40", "value": 2, "unit": "µg/mL"}, {"measurement": "MIC values", "setting": "[1]; Table S1: SA0077 Abf (passages on antibiotic-free media)", "value": 0.25, "unit": "µg/mL"}, {"measurement": "MIC", "setting": "[1]; Table S4: SA0077, strain before selection", "value": 0.25, "unit": "µg/mL"}, {"measurement": "MIC", "setting": "[2]; SA0085, selecting agent DAP, passage 5", "value": 0.5, "unit": "µg/mL"}, {"measurement": "MIC", "setting": "[2]; SA0085, selecting agent DAP, passage 20", "value": 32, "unit": "µg/mL"}, {"measurement": "MIC", "setting": "[2]; SA0085, selecting agent DAP, passage 40", "value": ">64", "unit": "µg/mL"}, {"measurement": "MIC", "setting": "[2]; SA0085, selecting agent VAN, passage 0", "value": 0.5, "unit": "µg/mL"}, {"measurement": "MIC", "setting": "[2]; SA0085, selecting agent VAN, passage 5", "value": 1, "unit": "µg/mL"}, {"measurement": "MIC", "setting": "[2]; SA0085, selecting agent VAN, passage 20", "value": 2, "unit": "µg/mL"}, {"measurement": "MIC", "setting": "[2]; SA0085, selecting agent VAN, passage 40", "value": 2, "unit": "µg/mL"}, {"measurement": "MIC values", "setting": "[2]; Table S1: SA0085 Abf (passages on antibiotic-free media)", "value": 0.5, "unit": "µg/mL"}, {"measurement": "MIC", "setting": "[2]; Table S4: SA0085, strain before selection", "value": 0.5, "unit": "µg/mL"}, {"measurement": "MIC", "setting": "[3]; SA0422, selecting agent DAP, passage 5", "value": 8, "unit": "µg/mL"}, {"measurement": "MIC", "setting": "[3]; SA0422, selecting agent DAP, passage 20", "value": 16, "unit": "µg/mL"}, {"measurement": "MIC", "setting": "[3]; SA0422, selecting agent DAP, passage 40", "value": ">64", "unit": "µg/mL"}, {"measurement": "MIC", "setting": "[3]; SA0422, selecting agent VAN, passage 0", "value": 0.25, "unit": "µg/mL"}, {"measurement": "MIC", "setting": "[3]; SA0422, selecting agent VAN, passage 5", "value": 1, "unit": "µg/mL"}, {"measurement": "MIC", "setting": "[3]; SA0422, selecting agent VAN, passage 20", "value": 1, "unit": "µg/mL"}, {"measurement": "MIC", "setting": "[3]; SA0422, selecting agent VAN, passage 40", "value": 2, "unit": "µg/mL"}, {"measurement": "MIC", "setting": "[3]; Table S4: SA0422, strain before selection", "value": 0.25, "unit": "µg/mL"}, {"measurement": "MIC", "setting": "[4]; SA0736, selecting agent DAP, passage 5", "value": 1, "unit": "µg/mL"}, {"measurement": "MIC", "setting": "[4]; SA0736, selecting agent DAP, passage 20", "value": 32, "unit": "µg/mL"}, {"measurement": "MIC", "setting": "[4]; SA0736, selecting agent DAP, passage 40Y (yellow colonies)", "value": ">64", "unit": "µg/mL"}, {"measurement": "MIC", "setting": "[4]; SA0736, selecting agent VAN, passage 0", "value": 0.25, "unit": "µg/mL"}, {"measurement": "MIC", "setting": "[4]; SA0736, selecting agent VAN, passage 5", "value": 0.5, "unit": "µg/mL"}, {"measurement": "MIC", "setting": "[4]; SA0736, selecting agent VAN, passage 20", "value": 0.5, "unit": "µg/mL"}, {"measurement": "MIC", "setting": "[4]; SA0736, selecting agent VAN, passage 40", "value": 2, "unit": "µg/mL"}, {"measurement": "MIC values", "setting": "[4]; Table S1: SA0736 DAP-W (40 passages on daptomycin, white colonies)", "value": "> 64", "unit": "µg/mL"}, {"measurement": "MIC values", "setting": "[4]; Table S1: SA0736 DAP-Y (40 passages on daptomycin, yellow colonies)", "value": "> 64", "unit": "µg/mL"}, {"measurement": "MIC", "setting": "[4]; Table S4: SA0736, strain before selection", "value": 0.25, "unit": "µg/mL"}, {"measurement": "MIC", "setting": "[5]; ATCC 29213, selecting agent DAP, passage 5", "value": 0.5, "unit": "µg/mL"}, {"measurement": "MIC", "setting": "[5]; ATCC 29213, selecting agent DAP, passage 20", "value": 32, "unit": "µg/mL"}, {"measurement": "MIC", "setting": "[5]; ATCC 29213, selecting agent DAP, passage 40", "value": 64, "unit": "µg/mL"}, {"measurement": "MIC", "setting": "[5]; ATCC 29213, selecting agent VAN, passage 0", "value": 0.125, "unit": "µg/mL"}, {"measurement": "MIC", "setting": "[5]; ATCC 29213, selecting agent VAN, passage 5", "value": 0.25, "unit": "µg/mL"}, {"measurement": "MIC", "setting": "[5]; ATCC 29213, selecting agent VAN, passage 20", "value": 2, "unit": "µg/mL"}, {"measurement": "MIC", "setting": "[5]; ATCC 29213, selecting agent VAN, passage 40", "value": 2, "unit": "µg/mL"}, {"measurement": "MIC", "setting": "[5]; Table S4: ATCC 29213, strain before selection", "value": 0.125, "unit": "µg/mL"}, {"measurement": "change of MICs on deletion of SACOL1927 (yfhP)", "setting": "[6]; S. aureus mutant strain RN4220, allele replacement", "value": "did not change"}, {"measurement": "MIC values", "setting": "[6]; Table S1: RN4220 WT", "value": 0.25, "unit": "µg/mL"}, {"measurement": "MIC values", "setting": "[6]; Table S1: RN4220 ∆ (strain with deletion in SACOL1927)", "value": 0.25, "unit": "µg/mL"}, {"measurement": "MIC", "setting": "[6]; Table S4: RN4220", "value": 0.25, "unit": "µg/mL"}, {"measurement": "MIC range by the 20th passage", "setting": "[7]; all strains, 20th passage of daptomycin selection", "value": "8 to 32", "unit": "µg/mL"}, {"measurement": "MIC correlated with mprF mutations", "setting": "[7]; daptomycin-selected derivatives, after the 20th passage", "value": "up to 32 mg/L"}, {"measurement": "MICs in derivatives of all strains after selection with vancomycin", "setting": "[7]; selection with vancomycin, derivatives of all strains", "value": 2, "unit": "µg/mL"}, {"measurement": "MIC", "setting": "[8]; moderate increase", "value": 2, "unit": "µg/mL"}, {"measurement": "effect on MIC", "setting": "[8]", "value": "no effect"}]}]}
